Experimental data reported in US4950792A, “Substituted p,p'-methylene-bis-anilines” (Lonza Ltd., priority 1985, dated 1990).
Values belong to the compound of their own block, whether it stands above or below them.

What was measured:
[1] = prior art; cited from earlier work
[2] = thermal stability: exotherm on heating; assay type: physicochemical; conditions: for exotherm of the product / time after which an exotherm could be determined: 350° C.
Procedure: Further, it was possible to establish that the compounds according to the invention are extremely temperature-stable. Thus, most of such compounds could be heated to 350° C. (comparison of MOCA around 200° C.) without the occurrence of an exotherm. The maximum possible working temperature with the new compounds consequently is substantially higher than with the usual chain-lengthening agents (comparison with MOCA, 140° C.). If this temperature is not used, at least the safe, decomposition-free working temperature range is substantially greater than the prior art compounds.

Structure (SMILES): Nc1ccc(Cc2ccc(N)c(Cl)c2)cc1Cl [Amine I, 4,4'-methylene-bis(2-chloroaniline), reference compound]
carcinogenicity [1]: carcinogenicity
temperature to which compound could be heated without the occurrence of an exotherm ([2]; comparison with MOCA): around 200 °C

Structure (SMILES): CCc1c(N)c(Cl)cc(Cc2cc(Cl)c(N)c(CC)c2Cl)c1Cl [Amine IV, 4,4'-Methylene-bis(2,5-dichloro-6-ethylaniline)]
exotherm of the product ([2]; time not stated): An exotherm

exotherm of the product ([2]; over 8 hours): No exotherm
Structure (SMILES): CCC(C)c1cc(Cc2cc(C(C)CC)c(N)c(C(C)CC)c2Cl)c(Cl)c(C(C)CC)c1N (stereo not drawn) [Amine IX, 4,4'-Methylene-bis-(3-chloro-2,6-di-sec-butylaniline)]

Structure (SMILES): CCc1cc(Cc2cc(CC)c(N)c(CC)c2Cl)c(Cl)c(CC)c1N [Amine V, 4,4'-Methylene-bis-(3-chloro-2,6-diethylaniline)]
exotherm of the product ([2]; over 8 hours): No exotherm

Structure (SMILES): CCc1cc(Cc2cc(CC)c(N)c(C)c2Cl)c(Cl)c(C)c1N [Amine VI, 4,4'-Methylene-bis-(3-chloro-2-methyl-6-ethylaniline)]
exotherm of the product ([2]; over 8 hours): No exotherm

Structure (SMILES): Cc1cc(Cc2cc(C)c(N)c(C(C)C)c2Cl)c(Cl)c(C(C)C)c1N [Amine VII, 4,4'-Methylene-bis-(5-chloro-2-methyl-6-isopropylaniline)]
temperature up to which no exotherm could be determined [2]: > 320 °C

Structure (SMILES): Cc1c(N)c(C(C)C)cc(Cc2cc(C(C)C)c(N)c(C)c2Cl)c1Cl [Amine VIII, 4,4'-Methylene-bis(3-chloro-2-methyl-6-isopropylaniline)]
exotherm of the product ([2]; over 8 hours): No exotherm

Structure (SMILES): CCC(C)c1c(N)c(C)cc(Cc2cc(C)c(N)c(C(C)CC)c2Cl)c1Cl (stereo not drawn) [Amine X, 4,4'-Methylene-bis(5-chloro-2-methyl-6-sec-butylaniline)]
temperature up to which no exotherm could be determined [2]: > 340 °C

Structure (SMILES): CCc1c(N)c(C)cc(Cc2cc(C)c(N)c(CC)c2Cl)c1Cl [Example 2, 4,4'-Methylene-bis-(5-chloro-2-methyl-6-ethylaniline)]
exotherm of the product ([2]; over 8 hours): No exotherm

Structure (SMILES): CC(C)c1cc(Cc2cc(C(C)C)c(N)c(C(C)C)c2Cl)c(Cl)c(C(C)C)c1N [Example 4, 4,4'-Methylene-bis(3-chloro-2,6-diisopropylaniline)]
time after which an exotherm could be determined [2]: 3 h

Structure (SMILES): CCC(C)c1cc(Cc2cc(C(C)CC)c(N)c(C)c2Cl)c(Cl)c(C)c1N (stereo not drawn) [Example 9, 4,4'-Methylene-bis(3-chloro-2-methyl-6-sec-butylaniline)]
time after which an exotherm could be determined [2]: 2 h
